Results on two molecules are retold here after article PMC10253456, “Investigating the Contribution of Major Drug-Metabolising Enzymes to Possum-Specific Fertility Control” (International Journal of Molecular Sciences, 2023).

Read-outs that look alike come from different tables or passages of the source.

For data set [1], the system named is CYP3A. The experiment in a line: CYP3A catalytic activity (erythromycin N-demethylation) in mouse liver microsomes. The note with it: for Percent control catalytic activity at estimated IC50: compounds without reported IC50 at 1 µM.
Experimental: (§1) Possums were collected from the Otago Peninsula (Dunedin) and the Okuti Valley, Banks Peninsula (Christchurch) in New Zealand in collaboration with the Otago Peninsula Biodiversity Group and Manaaki Whenua-Landcare Research, respectively. […] Possums were caged and humanely killed by a blow to the head, and the livers were harvested, snap-frozen in liquid nitrogen, and stored in a freezer at −80 °C until the preparation of microsomal fractions. […] Mice were euthanised by carbon dioxide inhalation and the livers were removed and microsomes prepared. […] The livers from avian species (mallards and a swan) were kindly donated by a local bird hunting group based in Dunedin, New Zealand. The livers from avian species were treated similarly to those mentioned above for the possum samples.
(§2) Microsomal preparation was carried out as previously described [76]. […] All procedures were performed at 0–4 °C. The liver samples were minced and homogenised in Buffer A (0.1 M Tris, 0.1 M potassium chloride, 1 mM EDTA, and 20 μM butylated hydroxytoluene, at pH = 7.4) using the Teflon-glass homogeniser (5–6 vertical passes). The samples were centrifuged at 10,000× g for 20 min. The supernatant was then transferred into another set of centrifuge tubes and spun at 100,000× g for 60 min. The pellet was resuspended in Buffer B (0.1 M potassium pyrophosphate, 1 mM EDTA, and 20 μM butylated hydroxytoluene, at pH = 7.4), homogenised, and recentrifuged at 100,000× g for 60 min. Finally, the pellet was homogenised in 1–2 mL of Buffer C (10 mM Tris-HCl, 1 mM EDTA, and 4% glycerol (v/v)), and stored at −80 °C until use. The protein concentration of the microsomes was determined using the bicinchoninic acid (BCA) method [77].
(§3) CYP3A catalytic activity was determined using the erythromycin N-demethylation activity assay, as described [78]. The reaction mixture (final volume of 1 mL and final protein concentration of 1 mg) contained 500 µL of microsomes in 0.1 M phosphate buffer (pH 7.4) and 400 µL of erythromycin buffer (0.45 mM), and 50 µL of the test compound was pre-warmed at 37 °C for 2 min. The reaction was initiated with 50 µL of 2.5 mM nicotinamide adenine dinucleotide phosphate (NADP^+) and incubated for 30 min at 37 °C. […] The tubes were vortexed and left for 5 min (at room temperature), and then 330 µL of saturated barium hydroxide was added. The tubes were further vortexed and left for 5 min (at room temperature). The tubes were then centrifuged at 1800× g for 10 min. To 830 µL of the supernatant, 330 µL of Nash reagent (30% (w/v) ammonium acetate, 0.4% (v/v) acetylacetone) was added and further incubated for 30 min at 60 °C. The blank tube contained 330 µL of Nash reagent and 830 µL of Milli-Q water. […] The CYP3A activities were determined in nmol/mg/min using standard curve data. Results presented are the mean ± SEM of 3 independent experiments performed in duplicate unless otherwise stated.
For data set [2], the system named is UGT2B. Put plainly: p-nitrophenol glucuronidation activity in pooled human liver microsomes. To be noted: pooled human liver microsomes. Background: Liver microsomes are vesicles of endoplasmic reticulum, rich in cytochrome P450 enzymes.
The test system of data set [3] is UGT2B. The experiment in a line: p-nitrophenol glucuronidation activity in possum liver microsomes. To be noted: for Glucuronidation Activities / Percent of Control: p-nitrophenol 0.625 mM. Type of data set: biochemical, possum (Trichosurus vulpecula).
In data set [4] the test system is CYP3A. Put plainly: CYP3A catalytic activity (erythromycin N-demethylation) in possum liver microsomes. To be noted: for Percent control catalytic activity at estimated IC50: compounds without reported IC50 at 1 µM.
The test system of data set [5] is UGT2B. The experiment in a line: p-nitrophenol glucuronidation activity in mouse liver microsomes. To be noted: mouse.
For data set [6], the system named is UGT2B. The note with it: avian.
Data set [7] deals with CYP3A. The note with it: avian; compound at estimated 2-fold IC50 (5 µM where none reported).
Experimental: as §1, §2, §3
The test system of data set [8] is CYP3A. The experiment in a line: CYP3A catalytic activity (erythromycin N-demethylation) in pooled human liver microsomes.
Setting [9] is: mouse liver microsomes, initial screen n=1.
[10] abbreviates: at estimated IC50 and 2-fold IC50 values.
[11] abbreviates: compound at estimated 2-fold IC50.
The mark [12] stands for this setting: possum liver microsomes, initial screen n=1.
Setting [13] is: mouse, compound at estimated 2-fold IC50 (5 µM where none reported).
The mark [14] stands for this setting: possum, compound at estimated 2-fold IC50 (5 µM where none reported).
Setting [15] is: compound at estimated 2-fold IC50 (5 µM where none reported).

Take `COc1cc(C2Oc3ccc([C@H]4Oc5cc(O)cc(O)c5C(=O)[C@@H]4O)cc3OC2CO)ccc1O` (stereo partly shown) [Isosilybin]: the “Percent control catalytic activity at estimated IC50” value is reported as 71 percent control with CYP3A [1] (setting [9]) and 73 percent control with CYP3A [4] (setting [12]). The “p-nitrophenol glucuronidation (UGT2B) activity, % of the control” value in the data set on UGT2B [2] (setting [10]) is “no significant inhibition”; with UGT2B [3] (setting [10]), > 65 % of the control. Further, the “% of control (UGT2B4 catalytic activity at 2-fold IC50)” value in the data set on UGT2B [2] (setting [11]) is on record as 107 % of control; in the data set with UGT2B [3] (setting [11]) it was 65 % of control; in the data set with UGT2B [5] (setting [11]), 80 % of control; in the data set on UGT2B [6] (setting [11]), 67 % of control. Also, the “UGT2B4 catalytic activity at 2-fold IC50” value in the data set with UGT2B [2] (setting [11]) is 3.15 µmol/mg/min; in the data set on UGT2B [3] (setting [11]) it was 2.21 ± 0.17 µmol/mg/min; in the data set with UGT2B [5] (setting [11]), 1.55 ± 0.19 µmol/mg/min; in the data set with UGT2B [6] (setting [11]), 0.28 ± 0.11 µmol/mg/min. Also, the “% of control (UGT2B4 catalytic activity at IC50)” value with UGT2B [2] (compound at estimated IC50) is 93 % of control; in the data set on UGT2B [3] (compound at estimated IC50) it was 78 % of control; in the data set with UGT2B [5] (compound at estimated IC50), 96 % of control; in the data set with UGT2B [6] (compound at estimated IC50), 101 % of control. In addition, the “inhibitory potential on glucuronidation activity with varying concentrations of p-nitrophenol (substrate)” value with UGT2B [3] (Table 1) was “no significant changes compared to their respective control activities”. Besides, the figures for the “Glucuronidation Activities” value in the data set on UGT2B [3] (isosilybin 100 µM) and in the data set with UGT2B [3] (isosilybin 200 µM) were 0.12 ± 0.09 µmol/mg/min and 0.13 ± 0.05 µmol/mg/min, respectively. The “Percent of Control” value in the data set with UGT2B [3] (isosilybin 100 µM) was 63% of Control; in the data set with UGT2B [3] (isosilybin 200 µM), 67% of Control.
Turning to `COc1ccc(/C=C/c2cc(O)cc(O)c2)cc1O` [Rhapontigenin], the entries for the “Percent control catalytic activity at estimated IC50” value in the data set on CYP3A [1] (setting [9]) and in the data set on CYP3A [4] (setting [12]) were 116 percent control and 103 percent control, respectively. For the same molecule, the “Percent control catalytic activity at estimated 2-fold IC50” value was 157 percent control with CYP3A [1] (mouse liver microsomes, initial screen n=1, compounds without reported IC50 at 5 µM) and 103 percent control in the data set with CYP3A [4] (possum liver microsomes, initial screen n=1, compounds without reported IC50 at 5 µM). Also, the “% of control (catalytic activity at 2-fold IC50)” value is recorded as 144 % of control in the data set with CYP3A [1] (setting [13]), 101 % of control in the data set with CYP3A [7], 124 % of control in the data set on CYP3A [4] (setting [14]) and 110 % of control in the data set on CYP3A [8] (setting [15]). In addition, the “Catalytic activity at 2-fold IC50” value in the data set on CYP3A [1] (setting [13]) was 0.52 ± 0.05 nmol/mg/min; with CYP3A [7], 0.30 ± 0.03 nmol/mg/min; in the data set with CYP3A [4] (setting [14]), 0.40 ± 0.03 nmol/mg/min; with CYP3A [8] (setting [15]) it was 0.53 nmol/mg/min. The activity at 30 min in the data set on CYP3A [8] (human, pH 7.4, probe erythromycin, % of control (catalytic activity at IC50), compound at estimated IC50 (1 µM where none reported)) is 106%.
